# Assay results as given in patent US8575197B2, “Pyrolinone derivative and pharmaceutical composition comprising the same” (Shionogi & Co., Ltd., priority 2008, dated 2013).
# Target: human P2X3 receptor (Homo sapiens (Human), UniProt P56373)
# Experiment: P2X3 receptor inhibition, ATP-evoked Fluo-3 calcium fluorescence (FDSS 3000)
# Type: cell-based
# Conditions: C6BU-1 cell transfected with human P2X3 receptor gene; ATP-evoked Fluo-3 fluorescence
# How it was run: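 C6BU-1 cells stably transfected with human P2X3, loaded with 4 μM Fluo-3-AM for 1 h at 37 °C in HEPES buffer pH 7.5 with probenecid. Compound added 5 min before 40 nM ATP solution; fluorescence followed 3 min. IC50 from ratio of peak post-ATP to baseline fluorescence.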
# Chain of human P2X3 receptor (P56373 whole entry): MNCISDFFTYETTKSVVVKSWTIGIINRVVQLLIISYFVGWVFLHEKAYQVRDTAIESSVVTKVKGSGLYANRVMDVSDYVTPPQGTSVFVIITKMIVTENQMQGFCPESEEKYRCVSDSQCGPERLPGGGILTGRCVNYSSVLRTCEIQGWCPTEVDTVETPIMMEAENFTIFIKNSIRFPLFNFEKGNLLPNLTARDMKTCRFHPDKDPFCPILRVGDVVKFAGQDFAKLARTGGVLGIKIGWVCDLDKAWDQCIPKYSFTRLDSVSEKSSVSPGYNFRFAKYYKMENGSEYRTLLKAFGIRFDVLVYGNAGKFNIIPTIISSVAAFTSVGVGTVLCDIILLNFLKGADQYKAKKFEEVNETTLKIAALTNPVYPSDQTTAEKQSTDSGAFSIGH
row,Structure (SMILES),IC50
1,CC(C)c1n[nH]c2c1C(c1ccccc1NS(C)(=O)=O)N(c1ccc(-c3ccsc3)cc1)C2=O (stereo not shown) [II-088],4 nM
2,CC(C)c1n[nH]c2c1C(c1ccccc1C(=O)O)N(c1ccc(-c3ccsc3)cc1)C2=O (stereo not shown) [II-089],107 nM
3,CC(C)c1n[nH]c2c1C(c1ccccc1C(N)=O)N(c1ccc(-c3ccsc3)cc1)C2=O (stereo not shown) [II-090],2 nM
4,COc1ccc(N2C(=O)c3[nH]nc(C(C)(C)C)c3C2c2ccccc2OC)cc1 (stereo not shown) [II-098],761 nM
5,CSc1ccccc1C1c2c(C(C)(C)C)n[nH]c2C(=O)N1c1ccc(-c2ccon2)cc1 (stereo not shown) [II-099],46 nM
6,CC(C)(C)c1n[nH]c2c1C(c1ccccc1OCCO)N(c1ccc(-c3ccon3)cc1)C2=O (stereo not shown) [II-100],31 nM
7,CCOc1ccccc1C1c2c(C(C)(C)C)n[nH]c2C(=O)N1c1ccc(-c2ccon2)cc1 (stereo not shown) [II-101],27 nM
8,CC(C)(C)c1n[nH]c2c1C(c1ccccc1OCCO)N(c1ccc(-c3ccsc3)cc1)C2=O (stereo not shown) [II-104],3 nM
9,CCc1ccccc1C1c2c(C(C)(C)C)n[nH]c2C(=O)N1c1ccc(-c2ccon2)cc1 (stereo not shown) [II-106],226 nM
10,CC(C)(C)c1n[nH]c2c1C(c1ccccc1OCC#N)N(c1ccc(-c3ccon3)cc1)C2=O (stereo not shown) [II-108],15 nM
11,COc1ncccc1C1c2c(C(C)(C)CO)n[nH]c2C(=O)N1c1ccc(-c2ccsc2)cc1 (stereo not shown) [II-109],21 nM
12,CC(C)(C)c1n[nH]c2c1C(c1ccccc1CO)N(c1ccc(-c3ccon3)cc1)C2=O (stereo not shown) [II-113],838 nM
13,Cc1ncccc1C1c2c(C(C)(C)C)n[nH]c2C(=O)N1c1ccc(-c2cccs2)cc1 (stereo not shown) [II-121],464 nM
14,CC(C)(C)c1n[nH]c2c1C(c1ccccc1OCCO)N(c1ccc(-c3ccoc3)cc1)C2=O (stereo not shown) [II-124],8 nM
15,COCCOc1ccccc1C1c2c(C(C)(C)C)n[nH]c2C(=O)N1c1ccc(-c2ccoc2)cc1 (stereo not shown) [II-125],10 nM
16,COCc1ncccc1C1c2c(C(C)(C)C)n[nH]c2C(=O)N1c1ccc(-c2ccsc2)cc1 (stereo not shown) [II-126],221 nM
17,CC(C)c1n[nH]c2c1C(c1ccccc1OCC#N)N(c1ccc(-c3ccsc3)cc1)C2=O (stereo not shown) [II-127],4 nM
18,COC(=O)COCc1ncccc1C1c2c(C(C)(C)C)n[nH]c2C(=O)N1c1ccc(-c2ccsc2)cc1 (stereo not shown) [II-128],216 nM
19,CC(C)(C)c1n[nH]c2c1C(c1ccccc1C(=O)O)N(c1ccc(-c3ccsc3)cc1)C2=O (stereo not shown) [II-131],88 nM
20,COCc1ncccc1C1c2c(C(C)C)n[nH]c2C(=O)N1c1ccc(-c2ccsc2)cc1 (stereo not shown) [II-133],116 nM
21,COc1ccccc1C1c2c(C(C)(C)CO)n[nH]c2C(=O)N1c1ccc(-c2noc(C)n2)cc1 (stereo not shown) [II-137],148 nM
22,COc1ccccc1C1c2c(C(C)(C)CO)n[nH]c2C(=O)N1c1ccc(-c2nc(C)no2)cc1 (stereo not shown) [II-138],44 nM
23,COc1ccc2nc(N3C(=O)c4[nH]nc(C(C)(C)CO)c4C3c3ccccc3OC)sc2c1 (stereo not shown) [II-142],104 nM
24,CO/N=C(/C)c1ccc(N2C(=O)c3[nH]nc(C(C)(C)C)c3C2c2ccccc2OC)cc1 (stereo not shown) [II-156],412 nM
25,CC(C)(C)c1n[nH]c2c1C(c1cccc[n+]1[O-])N(c1ccc(-c3cccs3)cc1)C2=O (stereo not shown) [II-164],36 nM
26,CNC(=O)COc1ccccc1C1c2c(C(C)(C)C)n[nH]c2C(=O)N1c1ccc(-c2ccsc2)cc1 (stereo not shown) [II-167],5 nM

# The remaining compounds from weak to strong by IC50, led by results:
row,IC50,Structure (SMILES)
1,977 nM,COc1ccccc1C1c2c(C(C)(C)C)n[nH]c2C(=O)N1c1ccc(-c2cc(NC(C)=O)no2)cc1 (stereo not shown) [II-147]
2,650 nM,COc1ccccc1C1c2c(C(C)(C)C)n[nH]c2C(=O)N1c1ccc(C(C)(C)O)cc1 (stereo not shown) [II-151]
3,431 nM,Cc1ncccc1C1c2c(C(C)(C)C)n[nH]c2C(=O)N1c1ccc(-c2ccsc2)cc1 (stereo not shown) [II-123]
4,429 nM,COc1ccc(-c2n[nH]c3c2C(c2ccccc2OCCO)N(c2nc4ccc(OC)cc4s2)C3=O)cc1 (stereo not shown) [II-118]
5,416 nM,CNc1cc(-c2ccc(N3C(=O)c4[nH]nc(C(C)(C)C)c4C3c3ccccc3OC)cc2)on1 (stereo not shown) [II-146]
6,389 nM,CC(C)(C)c1n[nH]c2c1C(c1ccccc1S(C)(=O)=O)N(c1ccc(-c3ccon3)cc1)C2=O (stereo not shown) [II-112]
7,377 nM,C=C(C)c1n[nH]c2c1C(c1ccccc1OC)N(c1ccc(-c3ccon3)cc1)C2=O (stereo not shown) [II-149]
8,358 nM,COc1ccccc1C1c2c(C(C)(C)C)n[nH]c2C(=O)N1c1ccc(OC(F)(F)F)cc1 (stereo not shown) [II-097]
9,348 nM,COc1ccc(-c2n[nH]c3c2C(c2ccccc2OCCO)N(c2nc4cc(OC)ccc4s2)C3=O)cc1 (stereo not shown) [II-117]
10,332 nM,COc1ccccc1C1c2c(C(C)(C)CO)n[nH]c2C(=O)N1c1nc2ccccc2s1 (stereo not shown) [II-139]
11,322 nM,COc1ccccc1C1c2c(C(C)(C)C)n[nH]c2C(=O)N1c1ccc(C(C)=O)cc1 (stereo not shown) [II-155]
12,311 nM,COc1ccccc1C1c2c(C(F)(F)F)n[nH]c2C(=O)N1c1ccc(-c2ccon2)cc1 (stereo not shown) [II-148]
13,141 nM,COCCOc1ccccc1C1c2c(C(C)(C)CO)n[nH]c2C(=O)N1c1ccc(-c2ccon2)cc1 (stereo not shown) [II-132]
14,137 nM,CN(C)c1ccccc1C1c2c(C(C)(C)C)n[nH]c2C(=O)N1c1ccc(-c2ccon2)cc1 (stereo not shown) [II-119]
15,114 nM,CC(C)(C)c1n[nH]c2c1C(c1ccccc1O)N(c1ccc(-c3ccon3)cc1)C2=O (stereo not shown) [II-107]
16,91 nM,COc1ncccc1C1c2c(C(C)(C)CO)n[nH]c2C(=O)N1c1ccc(-c2ccco2)cc1 (stereo not shown) [II-111]

row,IC50,Structure (SMILES)
1,65 nM,CC(C)c1n[nH]c2c1C(c1ccccc1CC(=O)O)N(c1ccc(-c3ccsc3)cc1)C2=O (stereo not shown) [II-094]
2,55 nM,COc1ccccc1C1c2c(C(C)(C)CO)n[nH]c2C(=O)N1c1ccc(-c2cc(C)no2)cc1 (stereo not shown) [II-136]
3,41 nM,COc1ccccc1C1c2c(C(C)(C)C(=O)O)n[nH]c2C(=O)N1c1ccc(-c2ccsc2)cc1 (stereo not shown) [II-165]
4,34 nM,COc1ccccc1C1c2c(C(C)(C)C(=O)O)n[nH]c2C(=O)N1c1ccc(-c2cccs2)cc1 (stereo not shown) [II-163]
5,33 nM,CCC(CC)(CO)c1n[nH]c2c1C(c1ccccc1OC)N(c1ccc(-c3ccon3)cc1)C2=O (stereo not shown) [II-145]
6,24 nM,COc1ncccc1C1c2c(C(C)(C)CO)n[nH]c2C(=O)N1c1ccc(-c2cccs2)cc1 (stereo not shown) [II-110]
7,22 nM,COc1ccccc1C1c2c(C(C)(C)CO)n[nH]c2C(=O)N1c1ccc(-c2nccs2)cc1 (stereo not shown) [II-141]
8,13 nM,CC(C)(C)c1n[nH]c2c1C(c1ccccc1OCCO)N(c1ccc(-c3ccco3)cc1)C2=O (stereo not shown) [II-105]
9,12 nM,COC(=O)Nc1ccccc1C1c2c(C(C)C)n[nH]c2C(=O)N1c1ccc(-c2ccsc2)cc1 (stereo not shown) [II-095]
10,12 nM,COCCOc1ccccc1C1c2c(C(C)(C)C)n[nH]c2C(=O)N1c1ccc(-c2cccs2)cc1 (stereo not shown) [II-114]
11,11 nM,COCCOc1ccccc1C1c2c(C(C)(C)C)n[nH]c2C(=O)N1c1ccc(-c2ccsc2)cc1 (stereo not shown) [II-115]
12,7 nM,CN(C)C(=O)COc1ccccc1C1c2c(C(C)(C)C)n[nH]c2C(=O)N1c1ccc(-c2ccsc2)cc1 (stereo not shown) [II-166]
13,4 nM,COCCOc1ccccc1C1c2c(C(C)(C)CO)n[nH]c2C(=O)N1c1ccc(-c2ccsc2)cc1 (stereo not shown) [II-130]
14,2 nM,CC(C)c1n[nH]c2c1C(c1ccccc1C(=O)NCCO)N(c1ccc(-c3ccsc3)cc1)C2=O (stereo not shown) [II-091]
15,2 nM,CNC(=O)c1ccccc1C1c2c(C(C)C)n[nH]c2C(=O)N1c1ccc(-c2ccsc2)cc1 (stereo not shown) [II-092]
16,2 nM,CC(C)c1n[nH]c2c1C(c1ccccc1C(=O)N(C)C)N(c1ccc(-c3ccsc3)cc1)C2=O (stereo not shown) [II-093]
